In US9930890B2 (priority 2010, dated 2018):

Experiments:
[1] = for logp [a]: pH 2.7; for logp [b]: pH 7.8
Phytophthora infestans = type: in vivo; conditions: tomato plants, protective spray, active ingredient concentration 100 ppm, evaluation 7 days after inoculation; 0% = control, 100% = no infection

Row | Compound | logp [a] [1] | Eff. % (Phytophthora infestans) [%] | logp [b] [1]
1 | O=C(O)c1ccccc1C1CC(c2csc(C3CCN(C(=O)Cn4nc(C(F)F)cc4C(F)F)CC3)n2)=NO1 (stereo not drawn) [I-134] | 2.63[a] | 93 | 
2 | CCS(=O)(=O)Oc1ccc(C2CC(c3csc(C4CCN(C(=O)Cn5nc(C(F)(F)F)cc5C)CC4)n3)=NO2)cc1 (stereo not drawn) [I-97] | 3.14[a], | 95 | 3.05[b]
3 | CS(=O)(=O)Oc1cc(Cl)ccc1C1CC(c2csc(C3CCN(C(=O)Cn4nc(C(F)F)cc4C(F)F)CC3)n2)=NO1 (stereo not drawn) [I-70] | 3.27[a], | 97 | 3.27[b]
4 | N#CCOc1cccc(C2CC(c3csc(C4CCN(C(=O)Cn5nc(C(F)F)cc5C(F)F)CC4)n3)=NO2)c1 (stereo not drawn) [I-110] | 2.95[a], | 100 | 2.88[b]
5 | COCCSCc1ccccc1C1CC(c2csc(C3CCN(C(=O)Cn4nc(C(F)F)cc4C(F)F)CC3)n2)=NO1 (stereo not drawn) [I-100] | 3.5[a] | 100 | 
6 | CCS(=O)(=O)Oc1ccc(C2CC(c3csc(C4CCN(C(=O)Cn5nc(C(F)F)cc5C(F)F)CC4)n3)=NO2)cc1 (stereo not drawn) [I-105] | 2.97[a], |  | 2.96[b]
7 | Cc1cc(OS(C)(=O)=O)c(C2(C)CC(c3csc(C4CCN(C(=O)Cn5nc(C(F)F)cc5C(F)F)CC4)n3)=NO2)cc1C (stereo not drawn) [I-91] | 3.63[a], |  | 3.58[b]
8 | CCS(=O)(=O)Oc1cccc(C2CC(c3csc(C4CCN(C(=O)Cn5nc(C(F)(F)F)cc5C)CC4)n3)=NO2)c1 (stereo not drawn) [I-99] | 3.18[a], | 100 | 3.08[b]
9 | C#CCOCc1cccc(F)c1C1CC(c2csc(C3CCN(C(=O)Cn4nc(C(F)F)cc4C(F)F)CC3)n2)=NO1 (stereo not drawn) [I-68] | 3.3[a] |  | 
10 | C=CCOCc1ccccc1C1CC(c2csc(C3CCN(C(=O)Cn4nc(C(F)(F)F)cc4C)CC3)n2)=NO1 (stereo not drawn) [I-93] | 3.84[a] | 95 | 
11 | O=C(Cn1nc(C(F)F)cc1C(F)F)N1CCC(c2nc(C3=NOC(c4cccc(OCC#Cc5cccc6ccccc56)c4)C3)cs2)CC1 (stereo not drawn) [I-137] | 4.6[a], | 100 | 4.71[b]
12 | Cc1ccc(C)c(NC(=O)N2CCC(c3nc(C4=NOC(c5c(Cl)cccc5OS(C)(=O)=O)C4)cs3)CC2)c1 (racemic) [I-52] | 3.35[a], | 94 | 3.25[b]
13 | Cc1ccc(Cl)cc1NC(=O)N1CCC(c2nc(C3=NOC(c4cccc(C=NOC(C)C)c4)C3)cs2)CC1 (mixture of isomers) [I-13] | 4.4[a] | 100 | 
14 | CCON=Cc1cccc(C2CC(c3csc(C4CCN(C(=O)Cn5nc(C(F)(F)F)cc5C)CC4)n3)=NO2)c1 (mixture of isomers) [I-11] | 3.8[a] | 100 | 
15 | COCC[S+]([O-])Cc1ccccc1C1CC(c2csc(C3CCN(C(=O)Cn4nc(C(F)F)cc4C(F)F)CC3)n2)=NO1 (mixture of isomers) [I-56] | 2.52[a] | 94 | 
16 | Cc1ccc(C2CC(c3csc(C4CCN(C(=O)Cn5nc(C(F)F)cc5C(F)F)CC4)n3)=NO2)c(OS(C)(=O)=O)c1 (stereo not drawn) [I-72] | 3.2[a], |  | 3.12[b]
17 | COCCS(=O)(=O)Cc1ccccc1C1CC(c2csc(C3CCN(C(=O)Cn4nc(C(F)(F)F)cc4C)CC3)n2)=NO1 (racemic) [I-45] | 3.64[a] | 94 | 
18 | Cc1ccc(OCC#N)c(C2CC(c3csc(C4CCN(C(=O)Cn5nc(C(F)F)cc5C(F)F)CC4)n3)=NO2)c1 (stereo not drawn) [I-141] | 3.17[a], |  | 3.15[b]
19 | COc1ccc(OS(C)(=O)=O)c(C2(C)CC(c3csc(C4CCN(C(=O)Cn5nc(C(F)F)cc5C(F)F)CC4)n3)=NO2)c1OC (stereo not drawn) [I-92] | 3.28[a], |  | 3.25[b]
20 | Cc1cc(C(F)(F)F)nn1CC(=O)N1CCC(c2nc(C3=NOC(c4cccc(F)c4OCC#N)C3)cs2)CC1 (stereo not drawn) [I-111] | 3.22[a], | 98 | 3.13[b]
21 | Cc1cc(C(F)(F)F)nn1CC(=O)N1CCC(c2nc(C3=NOC(c4ccccc4C=NOC(C)C)C3)cs2)CC1 (mixture of isomers) [I-39] |  | 100 | 
22 | CS(=O)(=O)Oc1ccc(Cl)cc1C1CC(c2csc(C3CCN(C(=O)Cn4nc(C(F)F)cc4C(F)F)CC3)n2)=NO1 (racemic) [I-59] | 3.27[a], |  | 3.25[b]
23 | Cc1ccc(Cl)cc1NC(=O)N1CCC(c2nc(C3=NOC(c4ccccc4C=NOC(C)C)C3)cs2)CC1 (mixture of isomers) [I-37] |  | 100 | 
24 | C=CCOCc1ccccc1C1CC(c2csc(C3CCN(C(=O)Cn4nc(C(F)F)cc4C(F)F)CC3)n2)=NO1 (stereo not drawn) [I-94] | 3.63[a] | 100 | 
25 | O=C(Cn1nc(C(F)F)cc1C(F)F)N1CCC(c2nc(C3=NOC(c4ccccc4OC(=O)C4(Cl)CC4)C3)cs2)CC1 (stereo not drawn) [I-107] | 3.66[a], | 100 | 3.57[b]
26 | O=C(Cn1nc(C(F)F)cc1C(F)F)N1CCC(c2nc(C3=NOC(c4ccccc4OCC#Cc4cccc5ccccc45)C3)cs2)CC1 (stereo not drawn) [I-2] | 4.81[a], | 100 | 4.68[b]
27 | Cc1cc(C(F)(F)F)nn1CC(=O)N1CCC(c2nc(C3=NOC(c4ccc(OS(=O)(=O)C5CC5)cc4)C3)cs2)CC1 (stereo not drawn) [I-98] | 3.22[a], | 95 | 3.13[b]

Row | Compound | logp [a] [1] | Eff. % (Phytophthora infestans) [%] | logp [b] [1]
28 | N#CCOc1cc(Cl)ccc1C1CC(c2csc(C3CCN(C(=O)Cn4nc(C(F)F)cc4C(F)F)CC3)n2)=NO1 (stereo not drawn) [I-71] | 3.23[a], | 100 | 3.22[b]
29 | CS(=O)(=O)Oc1c(Cl)cccc1C1CC(c2csc(C3CCN(C(=O)Cn4nc(C(F)F)cc4C(F)F)CC3)n2)=NO1 (stereo not drawn) [I-145] | 3.19[a], |  | 3.19[b]
30 | CCON=Cc1cccc(C2CC(c3csc(C4CCN(C(=O)Cn5nc(C(F)F)cc5C(F)F)CC4)n3)=NO2)c1 (mixture of isomers) [I-24] |  | 100 | 
31 | CC(=NOC(C)C)c1cccc(C2CC(c3csc(C4CCN(C(=O)Cn5nc(C(F)(F)F)cc5C)CC4)n3)=NO2)c1 (mixture of isomers) [I-9] |  | 100 | 
32 | Cc1cc(C(F)(F)F)nn1CC(=O)N1CCC(c2nc(C3=NOC(c4cccc(C=NOC(C)C)c4)C3)cs2)CC1 (mixture of isomers) [I-8] |  | 100 | 
33 | CC(=NOC(C)C)c1cccc(C2CC(c3csc(C4CCN(C(=O)Cn5nc(C(F)F)cc5C(F)F)CC4)n3)=NO2)c1 (mixture of isomers) [I-20] |  | 100 | 
34 | N#CCOc1ccc(Cl)cc1C1CC(c2csc(C3CCN(C(=O)Cn4nc(C(F)F)cc4C(F)F)CC3)n2)=NO1 (racemic) [I-58] | 3.27[a], |  | 3.23[b]
35 | CC(C)ON=Cc1cccc(C2CC(c3csc(C4CCN(C(=O)Cn5nc(C(F)F)cc5C(F)F)CC4)n3)=NO2)c1 (mixture of isomers) [I-6] |  | 100 | 
36 | CCON=Cc1cccc(C2CC(c3csc(C4CCN(C(=O)Nc5cc(Cl)ccc5C)CC4)n3)=NO2)c1 (mixture of isomers) [I-12] |  | 95 | 
37 | CC(=NOC(C)C)c1ccccc1C1CC(c2csc(C3CCN(C(=O)Cn4nc(C(F)F)cc4C(F)F)CC3)n2)=NO1 (mixture of isomers) [I-28] |  | 100 | 
38 | Cc1ccc(C2CC(c3csc(C4CCN(C(=O)Cn5nc(C(F)(F)F)cc5C)CC4)n3)=NO2)c(OS(C)(=O)=O)c1 (stereo not drawn) [I-66] | 3.26[a], |  | 3.21[b]
39 | O=C(Cn1nc(C(F)F)cc1C(F)F)N1CCC(c2nc(C3=NOC(c4ccc(OS(=O)(=O)C5CC5)cc4)C3)cs2)CC1 (stereo not drawn) [I-106] | 3.06[a], |  | 3.05[b]
40 | N#CCOc1ccc(F)c(C2CC(c3csc(C4CCN(C(=O)Cn5nc(C(F)F)cc5C(F)F)CC4)n3)=NO2)c1F (stereo not drawn) [I-80] | 2.96[a], |  | 2.85[b]
41 | Cc1ccc(C2CC(c3csc(C4CCN(C(=O)Cn5nc(C(F)(F)F)cc5C)CC4)n3)=NO2)c(OCC#N)c1 (stereo not drawn) [I-142] | 3.29[a], |  | 3.22[b]
42 | Cc1cc(C(F)F)nn1CC(=O)N1CCC(c2nc(C3=NOC(c4ccccc4OCC#N)C3)cs2)CC1 (stereo not drawn) [I-143] | 2.6[a], |  | 2.61[b]
43 | COc1cccc(OS(C)(=O)=O)c1C1(C)CC(c2csc(C3CCN(C(=O)Cn4nc(C(F)F)cc4C(F)F)CC3)n2)=NO1 (stereo not drawn) [I-88] | 3.17[a], |  | 3.11[b]
44 | CC(=O)OCc1cccc(F)c1C1CC(c2csc(C3CCN(C(=O)Cn4nc(C(F)F)cc4C(F)F)CC3)n2)=NO1 (stereo not drawn) [I-69] | 3.12[a] |  | 
45 | COCC[S+]([O-])Cc1ccccc1C1CC(c2csc(C3CCN(C(=O)Cn4nc(C(F)(F)F)cc4C)CC3)n2)=NO1 (stereo not drawn) [I-90] | 2.53[a] |  | 
46 | CCON=Cc1ccccc1C1CC(c2csc(C3CCN(C(=O)Nc4cc(Cl)ccc4C)CC3)n2)=NO1 (mixture of isomers) [I-33] |  | 100 | 
47 | Cc1ccc(C2CC(c3csc(C4CCN(C(=O)Cn5nc(C(F)F)cc5C(F)F)CC4)n3)=NO2)c(OCC#N)c1 (stereo not drawn) [I-144] | 3.15[a], |  | 3.13[b]
48 | Cc1ccc(OS(C)(=O)=O)c(C2CC(c3csc(C4CCN(C(=O)Cn5nc(C(F)F)cc5C(F)F)CC4)n3)=NO2)c1 (stereo not drawn) [I-67] | 3.22[a], |  | 3.11[b]
49 | CC(C)ON=Cc1ccccc1C1CC(c2csc(C3CCN(C(=O)Cn4nc(C(F)F)cc4C(F)F)CC3)n2)=NO1 (mixture of isomers) [I-42] |  | 100 | 
50 | Cc1cc(C(F)(F)F)nn1CC(=O)N1CCC(c2nc(C3=NOC(c4c(F)ccc(OS(C)(=O)=O)c4F)C3)cs2)CC1 (stereo not drawn) [I-79] | 3.02[a], |  | 2.94[b]
51 | N#CCOc1c(Cl)cccc1C1CC(c2csc(C3CCN(C(=O)Cn4nc(C(F)F)cc4C(F)F)CC3)n2)=NO1 (stereo not drawn) [I-146] | 3.14[a], |  | 3.26[b]
52 | Cc1cc(C(F)F)n(CC(=O)N2CCC(c3nc(C4=NOC(c5ccccc5OS(C)(=O)=O)C4)cs3)CC2)n1 (stereo not drawn) [I-73] | 2.65[a], |  | 2.58[b]
53 | CC(=NOC(C)C)c1ccccc1C1CC(c2csc(C3CCN(C(=O)Cn4nc(C(F)(F)F)cc4C)CC3)n2)=NO1 (mixture of isomers) [I-30] |  | 100 | 
